We go through 15 compounds from US9416111B2, “Substituted diazine and triazine spleen tyrosine kinease (Syk) inhibitors” (Merck Sharp & Dohme Corp., priority 2012, dated 2016).

The target in the assay is T1, recombinant human GST-SYK (Homo sapiens, UniProt P43405).
T1 construct: purchased Carna Biosciences 08-176
Description: Homogeneous Time-Resolved Fluorescence (HTRF) assay for the recombinant human Syk enzyme. The following applies: GST-hSYK 5 pM, ATP 25 μM, IC50 rated in classes, read-out: rhSYK Activity. Format: biochemical. The method in brief:
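GST-hSYK (5 pM) was preincubated 10 min with inhibitor in 15 mM Tris-HCl pH 7.5, 0.01% tween 20, 2 mM DTT; reaction started with 250 nM biotinylated peptide, 5 mM Mg and 25 μM ATP, run 45 min at room temperature. Phosphopeptide detected by HTRF (Eu-anti-phosphotyrosine/SA-APC) after EDTA quench.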
Consider `Cc1cc(Nc2nccc(C(F)(F)F)n2)cc(-c2ccc(C(C)(C)O)nn2)c1` [Example 3.36, 2-[6-(3-methyl-5-{[4-(trifluoromethyl)pyrimidin-2-yl]amino}phenyl)pyridazin-3-yl]propan-2-ol], for which the IC50 fell in the range of 100 to 1000 nM.
For `Cc1cc(Nc2nccc(C(F)(F)F)n2)cc(-c2ccc(N3CCC(C(=O)O)CC3)nn2)c1` [Example 3.37, 1-[6-(3-methyl-5-{[4-(trifluoromethyl)pyrimidin-2-yl]amino}phenyl)pyridazin-3-yl]piperidine-4-carboxylic acid], the IC50 is less than 100 nM.
As for `Cc1cc(Nc2nccc(C(F)(F)F)n2)cc(-c2ccc(N(C)CC(=O)O)nn2)c1` [Example 3.38, N-methyl-N-[6-(3-methyl-5-{[4-(trifluoromethyl)pyrimidin-2-yl]amino}phenyl)pyridazin-3-yl]glycine], the IC50 was less than 100 nM.
With `Cc1cc(Nc2nccc(C(F)(F)F)n2)cc(-c2ccc(CCC(=O)O)nn2)c1` [Example 3.39, 3-[6-(3-methyl-5-{[4-(trifluoromethyl)pyrimidin-2-yl]amino}phenyl)pyridazin-3-yl]propanoic acid], the IC50 was less than 100 nM.
The result for `CCOC(=O)CCc1ccc(-c2cc(C)cc(Nc3nccc(C)n3)c2)nn1` [Example 3.40, ethyl 3-(6-{3-methyl-5-[(4-methylpyrimidin-2-yl)amino]phenyl}pyridazin-3-yl)propanoate] reads 100 to 1000 nM; that for `Cc1cc(Nc2nccc(C)n2)cc(-c2ccc(CCC(=O)O)nn2)c1` [Example 3.41, 3-(6-{3-methyl-5-[(4-methylpyrimidin-2-yl)amino]phenyl}pyridazin-3-yl)propanoic acid], 100 to 1000 nM; that for `CCOC(=O)CCc1ccc(-c2cc(C)cc(Nc3nccc(C4CC4)n3)c2)nn1` [Example 3.42, ethyl 3-(6-{3-[(4-cyclopropylpyrimidin-2-yl)amino]-5-methylphenyl}pyridazin-3-yl)propanoate], 100 to 1000 nM.
The result for `Cc1cc(Nc2nccc(C(F)(F)F)n2)cc(-c2ccnnc2)c1` [Example 3.43, N-(3-methyl-5-pyridazin-4-ylphenyl)-4-(trifluoromethyl)pyrimidin-2-amine] reads 100 to 1000 nM; that for `CCOC(=O)CCc1cc(-c2cccc(Nc3nccc(C(F)(F)F)n3)c2)ncn1` [Example 3.44, ethyl 3-[6-(3-{[4-(trifluoromethyl)pyrimidin-2-yl]amino}phenyl)pyrimidin-4-yl]propanoate], 1000 to 10000 nM; that for `O=C(O)CCc1cc(-c2cccc(Nc3nccc(C(F)(F)F)n3)c2)ncn1` [Example 3.45, 3-[6-(3-{[4-(trifluoromethyl)pyrimidin-2-yl]amino}phenyl)pyrimidin-4-yl]propanoic acid], 100 to 1000 nM.
Turning to `COc1ccnc(Nc2cc(C)cc(-c3cc(CCC(=O)O)ncn3)c2)n1` [Example 3.47, 3-(6-{3-[(4-methoxypyrimidin-2-yl)amino]-5-methylphenyl}pyrimidin-4-yl)propanoic acid], the IC50 is 100 to 1000 nM.
Consider `Cc1cc(Nc2nccc(C(F)(F)F)n2)cc(-c2ccncn2)c1` [Example 3.48, N-(3-methyl-5-pyrimidin-4-ylphenyl)-4-(trifluoromethyl)pyrimidin-2-amine], for which the IC50 lay in the range of 100 to 1000 nM.
The result for `CCOC(=O)CCc1cc(-c2cc(C)cc(Nc3nccc(C(F)(F)F)n3)c2)ncn1` [Example 3.49, ethyl 3-[6-(3-methyl-5-{[4-(trifluoromethyl)pyrimidin-2-yl]amino}phenyl)pyrimidin-4-yl]propanoate] reads 100 to 1000 nM; that for `Cc1cc(Nc2nccc(C(F)(F)F)n2)cc(-c2cc(CCC(=O)O)ncn2)c1` [Example 3.50, 3-[6-(3-methyl-5-{[4-(trifluoromethyl)pyrimidin-2-yl]amino}phenyl)pyrimidin-4-yl]propanoic acid], 100 to 1000 nM.
The result for `CCOC(=O)CCc1cc(-c2cc(C)cc(Nc3nccc(C)n3)c2)ncn1` [Example 3.51, ethyl 3-(6-{3-methyl-5-[(4-methylpyrimidin-2-yl)amino]phenyl}pyrimidin-4-yl)propanoate] reads 1000 to 10000 nM.
